Measured values: PubChem BioAssay (NCI)
Where “and” joins values, the source holds several entries; their conditions need not be identical. Equal entries are not always repeated.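 In this assay, cells in 96-well plates receive the compound at five concentrations for 48 hours. Endpoints are linearly interpolated between the surrounding concentrations. At the GI50, growth is halved. TGI: concentration producing complete growth inhibition.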

What was measured:
Experiment in all cases: NCI tumour cell line growth inhibition, 48 h
786-0 renal = system: 786-0 renal
SF-268 CNS = system: SF-268 CNS
MDA-MB-435 = system: MDA-MB-435
MOLT-4 leukemia = system: MOLT-4 leukemia
RPMI-8226 leukemia = system: RPMI-8226 leukemia
SNB-75 CNS = system: SNB-75 CNS
SK-OV-3 ovarian = system: SK-OV-3 ovarian
MDA-MB-231 breast = system: MDA-MB-231 breast
OVCAR-5 ovarian = system: OVCAR-5 ovarian
HOP-92 NSCLC = system: HOP-92 NSCLC

| SMILES | GI50 (786-0 renal) | TGI (786-0 renal) | GI50 (SF-268 CNS) | TGI (SF-268 CNS) | GI50 (MDA-MB-435) | TGI (MDA-MB-435) | GI50 (MOLT-4 leukemia) | TGI (MOLT-4 leukemia) | GI50 (RPMI-8226 leukemia) | TGI (RPMI-8226 leukemia) | GI50 (SNB-75 CNS) | TGI (SNB-75 CNS) | GI50 (SK-OV-3 ovarian) | TGI (SK-OV-3 ovarian) | GI50 (MDA-MB-231 breast) | TGI (MDA-MB-231 breast) | GI50 (OVCAR-5 ovarian) | TGI (OVCAR-5 ovarian) | GI50 (HOP-92 NSCLC) | TGI (HOP-92 NSCLC) |
| --- | --- | --- | --- | --- | --- | --- | --- | --- | --- | --- | --- | --- | --- | --- | --- | --- | --- | --- | --- | --- |
| C[C@@H](Nc1nc(N[C@H](C)C(F)(F)F)nc(-c2cccc(Cl)n2)n1)C(F)(F)F | 27.4 µM | 91.4 µM | 29400 nM | > 100 µM | > 100000 nM | > 100 µM | > 100000 nM | > 100 µM | > 100000 nM | > 100 µM | 15800 nM | 44.3 µM | 37600 nM | > 100 µM | 26800 nM | > 100 µM | > 100000 nM | > 100 µM | 10100 nM | 63.6 µM |
| C/C=C1/CN2CCC34C(=C(C(=O)OC)C1CC23)Nc1ccc(O)cc14 (centres undefined) |  | > 100 µM |  | > 100 µM |  | > 100 µM |  | > 100 µM |  | > 100 µM |  | > 100 µM |  | > 100 µM |  | > 100 µM |  | > 100 µM |  | > 100 µM |
| NC(N)=NN=c1c(=O)c2ccccc2c1=O | 19.1 µM | 33.3 µM | 2060 nM | 3.81 µM | 1950 nM | 3.71 µM | 1460 nM | 3.82 µM | 5700 nM | 29.6 µM | 11400 nM | 23.7 µM | 19600 nM | 33.8 µM | 16000 nM | 33.7 µM | 17500 nM | 32.5 µM | 19300 nM | 34.9 µM |
| CCCCCC/C=C/C#CCCCCCCCC(=O)O |  | > 100 µM |  | > 100 µM |  | > 100 µM |  | > 100 µM |  | > 100 µM |  | > 100 µM |  | > 100 µM |  | > 100 µM |  | > 100 µM |  | > 100 µM |
| COc1cc2c(Oc3ccc(NC(=O)C4(C(=O)Nc5ccc(F)cc5)CC4)cc3F)ccnc2cc1OCCCN1CCOCC1 | 1.61 µM and 1.54 µM | 3.11 µM and 2.99 µM | 858 nM and 1190 nM | 2.37 µM and 7.01 µM | 694 nM | 2.39 µM | 573 nM and 547 nM | > 24.9 µM and 5.45 µM | 2020 nM and 1680 nM | 5.02 µM and 7.07 µM | 175 nM and 150 nM | 1.88 µM and 2.16 µM | 1810 nM and 1880 nM | 3.94 µM and 5.53 µM | 1330 nM and 1280 nM | 2.72 µM and 2.74 µM | 885 nM and 1350 nM | 2.7 µM and > 8.7 µM | 243 nM and 43.3 nM | 1.65 µM and 0.991 µM |
| Cc1cc(=O)oc2c(C3=NN(C=O)C(c4ccccc4)C3)c(O)ccc12 (centres undefined) |  | 81.4 µM |  | > 100 µM |  | > 100 µM |  | > 100 µM |  | > 100 µM |  | 17.2 µM |  | 48.2 µM |  | > 100 µM |  | > 100 µM |  | 74.5 µM |
| Cc1ccc2c(c1)[n+](=O)c(C(=O)c1cccs1)c(C(F)(F)F)n2[O-] | 4.85 µM and 1.05 µM | 50 µM and 12.4 µM | 881 nM and 108 nM | 3.31 µM and 0.511 µM | 1370 nM and 1220 nM | 5.41 µM and 9.08 µM | 4120 nM | 50 µM | 1540 nM and 356 nM |  | 2860 nM | 17.3 µM | 1560 nM and 2340 nM | 11.2 µM and 19.4 µM | 1010 nM and 1080 nM | 2.8 µM and 6.37 µM | 1580 nM and 1570 nM | 7.48 µM and 12.9 µM | 1630 nM and 1780 nM | 11.5 µM and 15.3 µM |
